The results in this text go back to EP4725957A1, “GROUP OF CYCLIC ALKALINE LIPOPEPTIDE COMPOUNDS, AND PREPARATION METHOD THEREFOR AND USE THEREOF” (Institute of Medicinal Biotechnology, Chinese Academy of …, priority 2023, dated 2024).

Common to all, as to assay type: cell-based
Series [1] has as its system Acinetobacter baumannii ABA19-1. In outline:
(§1)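 MIC by CLSI broth microdilution; MH broth; final drug 64–0.03 mg/L, 2-fold; inoculum (2-4) × 10^5 CFU/mL from 0.5 McFarland suspension of 18-24 h colonies; 35-37°C, 16-20 h; growth controls included.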

Series [2] concerns Acinetobacter baumannii NCTC 13304 (OXA-27). Put shortly: as §1
Series [3] has as its system Escherichia coli ATCC BAA-2340 (KPC). Put shortly: as §1
In series [4] the test system is Escherichia coli ATCC BAA-2523. In outline: as §1
Series [5] has as its system Klebsiella pneumoniae ATCC BAA-1705 (KPC). In outline:
as §1

For series [6], the system named is Klebsiella pneumoniae KPN+19-15. In outline: as §1
For series [7], the system named is Pseudomonas aeruginosa ATCC 27853. Put shortly: as §1
Series [8] concerns Pseudomonas aeruginosa PAE19-3. In outline:
as §1

The nature of series [9]: Nephrotoxicity assay: in vitro cytotoxicity of HK-2 cells by CCK-8 assay. The following applies: human, HK-2 cells (human renal), 72 h incubation with drug-containing medium. Put shortly:
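Compounds in sterile water, diluted to final 500, 250, 200, 100, 50, 25 and 12.5 µg/mL, were applied for 72 h to human HK-2 kidney cells. Absorbance at 450 nm after 3 h CCK-8 gave viability against untreated wells, and IC50 came from logarithmic regression; three replicates.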
A general note: Tetrazolium dyes change colour on reduction, which living cells bring about.

The term MIC denotes the smallest concentration in the dilution series that meets the test's criterion for growth inhibition. High values mean a need for much substance, low ones inhibition by little substance. As usually defined, the IC50 is the concentration that inhibits the measured activity by half. High values mean weaker potency in that assay, low ones greater potency in that assay.

Each structure is given as a SMILES string. In brackets after ≈: the same amount, converted by molar mass. Read-outs that look alike come from different tables or passages of the source. Bridge positions count the residues as written; N and C are the ends. Square brackets hold non-standard residues; d marks the D form. Peptide text beside a SMILES is read from it. * marks the point of attachment. Nonanoyl = CCCCCCCCC(=O)*; X1 = CC[C@H](C)CCCCC(=O)*; Octanoyl = CCCCCCCC(=O)*; Orn = NCCC[C@H](N)C(=O)O; dDap = NC[C@@H](N)C(=O)O; Dab = NCC[C@H](N)C(=O)O; Dap = NC[C@H](N)C(=O)O Some results are limits rather than exact numbers.

As for `CCCCCCCC(=O)N[C@@H](CCN)C(=O)N[C@H](C(=O)N[C@@H](CCCN)C(=O)N[C@H]1CCNC(=O)[C@H]([C@@H](C)O)NC(=O)[C@H](CCN)NC(=O)[C@H](CCN)NC(=O)[C@H]([C@@H](C)O)NC(=O)[C@@H](Cc2ccccc2)NC(=O)[C@H](CCN)NC1=O)[C@@H](C)O` [Compound 28, Octanoyl-Dab-Thr-Orn-ring(4-10)[Dab-Dab-D-Phe-Thr-Dab-Dab-Thr]] (Octanoyl-[Dab]T[Orn][Dab][Dab][dF]T[Dab][Dab]T; lactam 4-C), the MIC in series [1] (ABA19-1) is recorded as 0.125 µg/mL (≈ 0.105 µM); in series [2] (NCTC 13304), 0.06 µg/mL (≈ 0.0504 µM); in series [3] (ATCC BAA-2340), not above 0.03 µg/mL; in [4] (ATCC BAA-2523), not above 0.03 µg/mL; in series [5] (ATCC BAA-1705), not above 0.03 µg/mL; in series [6] (KPN+19-15), not above 0.03 µg/mL. The results for the MIC in series [7] (ATCC 27853) and in series [8] (PAE19-3) were not above 0.03 µg/mL and 0.25 µg/mL (≈ 0.21 µM), respectively. The molecule also registered an IC50 at 72 h in [9] of more than 500 µg/mL.

In the case of `CCCCCCCCC(=O)N[C@@H](CCN)C(=O)N[C@H](C(=O)N[C@@H](CCN)C(=O)N[C@H]1CCNC(=O)[C@H]([C@@H](C)O)NC(=O)[C@H](CCN)NC(=O)[C@H](CCN)NC(=O)[C@H]([C@@H](C)O)NC(=O)[C@@H](Cc2ccccc2)NC(=O)[C@H](CCN)NC1=O)[C@@H](C)O` [Compound 20, Nonanoyl-Dab-Thr-Dab-ring(4-10)[Dab-Dab-D-Phe-Thr-Dab-Dab-Thr]] (Nonanoyl-[Dab]T[Dab][Dab][Dab][dF]T[Dab][Dab]T; lactam 4-C), the MIC in series [1] (ABA19-1) worked out at 0.5 µg/mL (≈ 0.42 µM); in series [2] (NCTC 13304), 0.25 µg/mL (≈ 0.21 µM); in series [3] (ATCC BAA-2340), 0.06 µg/mL (≈ 0.0504 µM); in [4] (ATCC BAA-2523), 0.06 µg/mL (≈ 0.0504 µM); in series [5] (ATCC BAA-1705) it was 0.06 µg/mL (≈ 0.0504 µM); in series [6] (KPN+19-15), 0.06 µg/mL (≈ 0.0504 µM). Besides, the MIC in series [7] (ATCC 27853) and in series [8] (PAE19-3) was 2 µg/mL (≈ 1.68 µM) in each case. For the same molecule, the IC50 at 72 h in [9] amounted to 280 ± 10.3 µg/mL (≈ 235 µM).

`CCCCCCCC(=O)N[C@@H](CCN)C(=O)N[C@H](C(=O)N[C@H](CO)C(=O)N[C@H]1CCNC(=O)[C@H]([C@@H](C)O)NC(=O)[C@H](CCN)NC(=O)[C@H](CCN)NC(=O)[C@H]([C@@H](C)O)NC(=O)[C@@H](Cc2ccccc2)NC(=O)[C@H](CCCN)NC1=O)[C@@H](C)O` [Compound 68, Octanoyl-Dab-Thr-D-Ser-ring(4-10)[Dab-Orn-D-Phe-Thr-Dab-Dab-Thr]] (Octanoyl-[Dab]T[dS][Dab][Orn][dF]T[Dab][Dab]T; lactam 4-C): the MIC is 0.25 µg/mL (≈ 0.212 µM) in series [1] (ABA19-1); 0.25 µg/mL (≈ 0.212 µM) in series [2] (NCTC 13304); 0.25 µg/mL (≈ 0.212 µM) in series [3] (ATCC BAA-2340); 0.25 µg/mL (≈ 0.212 µM) in [4] (ATCC BAA-2523); 0.25 µg/mL (≈ 0.212 µM) in [5] (ATCC BAA-1705); 0.5 µg/mL (≈ 0.424 µM) in series [6] (KPN+19-15). Further, the results for the MIC in series [7] (ATCC 27853) and in [8] (PAE19-3) were 64 µg/mL (≈ 54.3 µM) and 4 µg/mL (≈ 3.39 µM), respectively. This molecule came in with an IC50 at 72 h in series [9] of more than 500 µg/mL.

For the molecule `CCCCCCCC(=O)N[C@@H](CN)C(=O)N[C@H](C(=O)N[C@H](CO)C(=O)N[C@H]1CCNC(=O)[C@H]([C@@H](C)O)NC(=O)[C@H](CCN)NC(=O)[C@H](CCN)NC(=O)[C@H]([C@@H](C)O)NC(=O)[C@@H](Cc2ccccc2)NC(=O)[C@H](CCN)NC1=O)[C@@H](C)O` [Compound 53, Octanoyl-Dap-Thr-D-Ser-ring(4-10)[Dab-Dab-D-Phe-Thr-Dab-Dab-Thr]] (Octanoyl-[Dap]T[dS][Dab][Dab][dF]T[Dab][Dab]T; lactam 4-C), the MIC in series [1] (ABA19-1) is listed as 0.25 µg/mL (≈ 0.217 µM); in series [2] (NCTC 13304), 0.25 µg/mL (≈ 0.217 µM); in series [3] (ATCC BAA-2340), not above 0.03 µg/mL; in series [4] (ATCC BAA-2523), not above 0.03 µg/mL; in series [5] (ATCC BAA-1705), 0.25 µg/mL (≈ 0.217 µM); in series [6] (KPN+19-15), 0.5 µg/mL (≈ 0.435 µM). Besides, the MIC in series [7] (ATCC 27853) was 64 µg/mL (≈ 55.6 µM); in series [8] (PAE19-3), 4 µg/mL (≈ 3.48 µM). This molecule came in with an IC50 at 72 h in series [9] of more than 500 µg/mL.

Regarding `CC[C@H](C)CCCCC(=O)N[C@@H](CCN)C(=O)N[C@H](C(=O)N[C@@H](CN)C(=O)N[C@H]1CCNC(=O)[C@H]([C@@H](C)O)NC(=O)[C@H](CCN)NC(=O)[C@H](CCN)NC(=O)[C@H]([C@@H](C)O)NC(=O)[C@@H](Cc2ccccc2)NC(=O)[C@H](CCN)NC1=O)[C@@H](C)O` [Compound 6, (S)-6-methyloctanoyl-Dab-Thr-Dap-ring(4-10)[Dab-Dab-D-Phe-Thr-Dab-Dab-Thr]] (X1-[Dab]T[Dap][Dab][Dab][dF]T[Dab][Dab]T; lactam 4-C), the MIC in series [1] (ABA19-1), in series [2] (NCTC 13304), in [3] (ATCC BAA-2340), in [4] (ATCC BAA-2523), in series [5] (ATCC BAA-1705) and in series [6] (KPN+19-15) was not above 0.03 µg/mL throughout. The MIC came to 0.03 µg/mL (≈ 0.0255 µM) in series [7] (ATCC 27853) and 0.125 µg/mL (≈ 0.106 µM) in series [8] (PAE19-3). The molecule also came in with an IC50 at 72 h in series [9] of more than 500 µg/mL.

As to `CC[C@H](C)CCCCC(=O)N[C@@H](CCN)C(=O)N[C@H](C(=O)N[C@H](CO)C(=O)N[C@H]1CCNC(=O)[C@H]([C@@H](C)O)NC(=O)[C@H](CCN)NC(=O)[C@H](CCN)NC(=O)[C@H]([C@@H](C)O)NC(=O)[C@@H](Cc2ccccc2)NC(=O)[C@H](CN)NC1=O)[C@@H](C)O` [Compound 61, (S)-6-methyloctanoyl-Dab-Thr-D-Ser-ring(4-10)[Dab-Dap-D-Phe-Thr-Dab-Dab-Thr]] (X1-[Dab]T[dS][Dab][Dap][dF]T[Dab][Dab]T; lactam 4-C), the MIC in series [1] (Acinetobacter baumannii ABA19-1) is given as 0.25 µg/mL (≈ 0.215 µM); in series [2] (Acinetobacter baumannii NCTC 13304 (OXA-27)), 0.25 µg/mL (≈ 0.215 µM); in series [3] (Escherichia coli ATCC BAA-2340 (KPC)) it was 0.06 µg/mL (≈ 0.0515 µM); in series [4] (Escherichia coli ATCC BAA-2523) it was 0.06 µg/mL (≈ 0.0515 µM); in [5] (Klebsiella pneumoniae ATCC BAA-1705 (KPC)), 0.25 µg/mL (≈ 0.215 µM); in [6] (Klebsiella pneumoniae KPN 19-15), 0.5 µg/mL (≈ 0.429 µM). For the same molecule, the minimum inhibitory concentration (MIC) in series [7] (Pseudomonas aeruginosa ATCC27853) is recorded as 64 µg/mL (≈ 55 µM); in [8] (Pseudomonas aeruginosa PAE19-3), 4 µg/mL (≈ 3.44 µM). Moreover, in series [9], the IC50 at 72 h is more than 500 µg/mL.

Take `CC[C@H](C)CCCCC(=O)N[C@@H](CCN)C(=O)N[C@H](C(=O)N[C@H](CN)C(=O)N[C@H]1CCNC(=O)[C@H]([C@@H](C)O)NC(=O)[C@H](CCN)NC(=O)[C@H](CCN)NC(=O)[C@H](CC(C)C)NC(=O)[C@@H](Cc2ccccc2)NC(=O)[C@H](CCN)NC1=O)[C@@H](C)O` [Compound 31, (S)-6-methyloctanoyl-Dab-Thr-D-Dap-ring(4-10)[Dab-Dab-D-Phe-Leu-Dab-Dab-Thr]] (X1-[Dab]T[dDap][Dab][Dab][dF]L[Dab][Dab]T; lactam 4-C): the MIC in [1] (ABA19-1), in series [2] (NCTC 13304), in series [3] (ATCC BAA-2340), in series [4] (ATCC BAA-2523), in series [5] (ATCC BAA-1705) and in [6] (KPN+19-15) was 0.03 µg/mL (≈ 0.0252 µM) each time. Further, the MIC came to 0.03 µg/mL (≈ 0.0252 µM) in series [7] (ATCC 27853) and 0.25 µg/mL (≈ 0.21 µM) in [8] (PAE19-3). This molecule returned an IC50 at 72 h in [9] of 222 ± 10.2 µg/mL (≈ 186 µM).

As to `CC[C@H](C)CCCCC(=O)N[C@@H](CCN)C(=O)N[C@H](C(=O)N[C@@H](CCN)C(=O)N[C@H]1CCNC(=O)[C@H]([C@@H](C)O)NC(=O)[C@H](CCN)NC(=O)[C@H](CCN)NC(=O)[C@H]([C@@H](C)O)NC(=O)[C@@H](Cc2ccccc2)NC(=O)[C@H](CCN)NC1=O)[C@@H](C)O` [Compound 16, (S)-6-methyloctanoyl-Dab-Thr-Dab-ring(4-10)[Dab-Dab-D-Phe-Thr-Dab-Dab-Thr]] (X1-[Dab]T[Dab][Dab][Dab][dF]T[Dab][Dab]T; lactam 4-C), the MIC in [1] (ABA19-1), in [2] (NCTC 13304), in series [3] (ATCC BAA-2340), in series [4] (ATCC BAA-2523), in series [5] (ATCC BAA-1705) and in [6] (KPN+19-15) was not above 0.03 µg/mL each time. For the same molecule, the MIC in [7] (ATCC 27853) and in [8] (PAE19-3) was 0.5 µg/mL (≈ 0.42 µM) throughout. The molecule also yielded an IC50 at 72 h in [9] of more than 500 µg/mL.
